# Source: US20140121258A1, “COMPOUNDS ACT AT MULTIPLE PROSTAGLANDIN RECEPTORS GIVING A GENERAL ANTI-INFLAMMATORY RESPONSE” (ALLERGAN, INC., priority 2010, published 2014)
# Columns and labels:
# [1] = target: T1, human prostanoid FP receptor (Homo sapiens, UniProt P43088); assay: FLIPR Ca2+ signaling antagonist assay, FP receptor stable cell line; type: cell-based; details: HEK-293 EBNA stable cells, standard agonist 17-phenyl-PGF2α; NA = inactive (no antagonism or Kb≧10,000 nM)
# T1 construct: expressed in transfected cells
# Description: (§1) The above compounds were tested for PG antagonist activity as follows using human recombinant prostanoid receptor (DP1, EP1-4, FP, IP and TP) stable cell lines:
# (§2) In order to measure the response of Gs and Gi coupled prostanoid receptors as a Ca^2+ signal, chimeric G protein cDNAs were used. Stable cell lines over-expressing human prostanoid DP1, EP1-4, FP, IP, and TP receptors were established as follows:
# (§3) Briefly, human prostanoid DP1, EP2, and EP4 receptor cDNAs were co-transfected with chimeric Gqs cDNA containing a haemagglutanin (HA) epitope; human prostanoid EP3 receptors were co-transfected with chimeric Gqi-HA; human EP1, FP, IP, and TP receptor cDNAs were expressed with no exogenous G-proteins. Gqs and Gqi chimeric cDNAs (Molecular Devices, Sunnyvale, Calif., U.S.A.), as well as cDNAs of prostanoid receptors, were cloned into a pCEP4 vector with a hygromycin B selection marker. Transfection into HEK-293 EBNA (Epstein-Barr virus nuclear antigen) cells was achieved by the FuGENE 6 transfection Reagent (Roche Applied Science, Indianapolis, Ind., USA). Stable transfectants were selected according to hygromycin resistance. Because Gqs and Gqi contained an HA epitope, G-protein expression was detected by Western blotting analysis using anti-mouse HA monoclonal antibody and horseradish peroxidase (HRP)-conjugated secondary antibody, while functional expression of prostanoid receptors was detected by FLIPR screening (Matias et al., 2004). These stable cell lines were validated using previously published antagonists at 10 μM against serial dilutions of standard agonists by FLIPR functional assays for Ca^2+ Signaling (as described below).
# (§4) Ca^2+ signaling studies were performed using a FLIPR TETRA system (Molecular Devices, Sunnyvale, Calif., USA) in the 384-format. This is a high-throughput instrument for cell-based assays to monitor Ca^2+ signaling associated with GPCRs and ion channels. Cells were seeded at a density of 5×10^4 cells/well in BioCoat poly-D-lysine coated, black wall, clear bottom 384-well plates (BD Biosciences, Franklin lakes, NJ, USA) and allowed to attach overnight in an incubator at 37° C. The cells were then washed twice with HBSS-HEPES buffer (Hanks' balanced salt solution without bicarbonate and phenol red, 20 mM HEPES, pH 7.4) using an ELx405 Select CW Microplate Washer (BioTek, Winooski, Vt., USA). After 60 min of dye-loading in the dark using the Ca^2+-sensitive dye Fluo-4AM (Invitrogen, Carlsbad, Calif., USA), at a final concentration of 2×10^−6M, the plates were washed 4 times with HBSS-HEPES buffer to remove excess dye and leaving 50 μl of buffer in each well. The plates were then placed in the FLIPR TETRA instrument and allowed to equilibrate at 37° C. AGN-211377 was added in a 25 μl volume to each well to give final concentrations of 0.1 μM, 0.3 μM, 1 μM, 3 μM, 10 μM, and 30 μM; or 0.067 μM, 0.1 μM, 0.2 μM, 0.3 μM, 0.67 μM, and 1 μM for cells over-expressing TP receptors. After 4.5 minutes, a 7-point serial dilution of the standard agonist for the corresponding receptor, in a 25 μl volume was injected at the final concentrations from 10^−11M to 10^−5M in 10-fold serial dilution increments for cells expressing human recombinant DP1, EP1, EP2, EP3, EP4, FP, and IP receptors. The dose range for the standard agonist for human recombinant TP receptors was from 10^−12M to 10^−6M. HBSS-HEPES buffer was used as the negative control for the standard agonists. Cells were excited with LED (light emitting diode) excitation at 470-495 nm and emission was measured through an emission filter at 515-575 nm. Assay plates were read for 3.5 minutes using the FLIPR^TETRA. The peak increase in fluorescence intensity was recorded for each well. On each plate, negative controls, dose response of positive controls, and co-treatments of antagonist-agonist for each dose were in triplicates. Standard agonists were as follows: DP=BW 245C, EP1-EP4=PGE2, FP=17-phenyl-PGF2α, IP=Cicaprost, and TP=U-46619. […]
# [2] = target: T2, human prostanoid DP1 receptor (Homo sapiens, UniProt Q13258); assay: FLIPR Ca2+ signaling antagonist assay, DP1 receptor stable cell line; type: cell-based; details: HEK-293 EBNA stable cells with chimeric Gqs, standard agonist BW 245C; NA = inactive (no antagonism or Kb≧10,000 nM)
# T2 construct: expressed in transfected cells
# T2 sequence (Q13258 1-359): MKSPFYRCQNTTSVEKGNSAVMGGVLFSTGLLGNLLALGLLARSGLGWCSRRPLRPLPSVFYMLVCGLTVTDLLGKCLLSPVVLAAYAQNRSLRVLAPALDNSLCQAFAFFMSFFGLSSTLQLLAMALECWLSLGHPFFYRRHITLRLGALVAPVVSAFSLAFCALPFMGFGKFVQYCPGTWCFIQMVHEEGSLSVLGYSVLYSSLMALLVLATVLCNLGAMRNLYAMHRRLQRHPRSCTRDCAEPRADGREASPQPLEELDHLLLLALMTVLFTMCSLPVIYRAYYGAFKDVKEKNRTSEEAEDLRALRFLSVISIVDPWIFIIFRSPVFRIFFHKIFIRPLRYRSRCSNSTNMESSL
# Description: as §1, §2, §3, §4
# [3] = target: T3, human prostanoid EP1 receptor (Homo sapiens, UniProt P34995); assay: FLIPR Ca2+ signaling antagonist assay, EP1 receptor stable cell line; type: cell-based; details: HEK-293 EBNA stable cells, standard agonist PGE2; NA = inactive (no antagonism or Kb≧10,000 nM)
# T3 construct: expressed in transfected cells
# T3 sequence (P34995 1-402): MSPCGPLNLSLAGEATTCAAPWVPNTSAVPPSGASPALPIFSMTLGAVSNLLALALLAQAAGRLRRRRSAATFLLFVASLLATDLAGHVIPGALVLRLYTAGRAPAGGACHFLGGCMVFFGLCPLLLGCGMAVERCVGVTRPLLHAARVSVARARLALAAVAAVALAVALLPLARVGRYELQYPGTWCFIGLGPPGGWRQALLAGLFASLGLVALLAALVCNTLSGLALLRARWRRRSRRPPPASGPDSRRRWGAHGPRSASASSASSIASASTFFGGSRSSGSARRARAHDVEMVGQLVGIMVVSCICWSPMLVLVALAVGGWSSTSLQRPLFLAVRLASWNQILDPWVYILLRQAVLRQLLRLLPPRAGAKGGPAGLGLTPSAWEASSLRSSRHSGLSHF
# Description: as §1, §2, §3, §4
# [4] = target: T4, human prostanoid EP2 receptor (Homo sapiens, UniProt P43116); assay: FLIPR Ca2+ signaling antagonist assay, EP2 receptor stable cell line; type: cell-based; details: HEK-293 EBNA stable cells with chimeric Gqs, standard agonist PGE2; NA = inactive (no antagonism or Kb≧10,000 nM)
# T4 construct: expressed in transfected cells
# Description: as §1, §2, §3, §4
# [5] = target: T5, human prostanoid EP4 receptor (Homo sapiens, UniProt P35408); assay: FLIPR Ca2+ signaling antagonist assay, EP4 receptor stable cell line; type: cell-based; details: HEK-293 EBNA stable cells with chimeric Gqs, standard agonist PGE2; NA = inactive (no antagonism or Kb≧10,000 nM)
# T5 construct: expressed in transfected cells
# Description: as §1, §2, §3, §4
# [6] = target: T6, human prostanoid IP receptor (Homo sapiens, UniProt P43119); assay: FLIPR Ca2+ signaling antagonist assay, IP receptor stable cell line; type: cell-based; details: HEK-293 EBNA stable cells, standard agonist Cicaprost; NA = inactive (no antagonism or Kb≧10,000 nM)
# T6 construct: expressed in transfected cells
# Description: as §1, §2, §3, §4
# [7] = target: T7, human prostanoid TP receptor (Homo sapiens, UniProt P21731); assay: FLIPR Ca2+ signaling antagonist assay, TP receptor stable cell line; type: cell-based; details: HEK-293 EBNA stable cells, standard agonist U-46619; NA = inactive (no antagonism or Kb≧10,000 nM)
# T7 construct: expressed in transfected cells
# T7 sequence (P21731 1-343): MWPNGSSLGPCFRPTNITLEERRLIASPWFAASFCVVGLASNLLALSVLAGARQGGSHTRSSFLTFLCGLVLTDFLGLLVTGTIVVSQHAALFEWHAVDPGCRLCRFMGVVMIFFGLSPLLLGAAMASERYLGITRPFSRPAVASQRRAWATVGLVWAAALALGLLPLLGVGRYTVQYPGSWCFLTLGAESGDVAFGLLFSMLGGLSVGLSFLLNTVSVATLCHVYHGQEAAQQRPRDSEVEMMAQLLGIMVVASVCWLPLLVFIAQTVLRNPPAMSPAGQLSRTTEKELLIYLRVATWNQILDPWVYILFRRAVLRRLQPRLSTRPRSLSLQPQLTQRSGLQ
# Description: as §1, §2, §3, §4
# [8] = system: Dutch-belted pigmented rabbits; assay: Arachidonate induced uveitis, anterior chamber leukocyte infiltration; type: in vivo, rabbit; details: topical, concentrations of 0.1, 0.3 and 1%; 0.5% sodium arachidonate challenge; FIG. 12
# Description: The rational for this protocol is to use arachidonate to directly produce ocular anterior segment uveitis, as opposed to using lipopolysaccharide (LPS) to indirectly release arachidonic acid.
# Conscious male or female Dutch-belted pigmented rabbits weighing 2.5-3 kg were used for all in vivo slit lamp studies. Four animals were employed per test group. The right eye of each animal receiving 35 μl of topically administered test and the contralateral left eye of each animal receiving 35 μl of topically administered vehicle (t=0 minutes), followed 30 minutes later by treatment with 35 μl of 0.5% sodium arachidonate onto the surface of both eyes (t=30 minutes). Both eyes were examined by slit lamp 60 minutes following sodium arachdionate challenge (t=90 minutes) at 16× magnification under both white light and blue light illumination at an approximate angle of 45° through 1 mm and 5 mm slit widths.
# Anterior chamber leukocyte infiltration was measured using a numerical scoring system to estimate cell number per field defined by a 5 mm slit width: 0=no cells per field (no response); 1=1-10 cells per field (mild); 2=11-20 cells per field (moderate); 3=[…] cells per field (severe); 4=>50 cells per filed (florid). Results are reported as the mean score value±S.E.M.
# [9] = Allergic conjunctival itch (itch-scratch episodes); type: in vivo; details: FIGS. 10 and 11, both experiments
# Description: The compounds of this invention were tested according to the method described in “Characterization of Receptor Subtypes Involved in Prostanoid-Induced Conjunctival Pruritis and Their Role in Mediating Conjunctival Itching”, Vol. 279, No. 1, (JPET)279, 137-142′ 1996 for their efficacy in alleviating itch.
# [10] = target: T8, human prostanoid EP3 receptor (Homo sapiens, UniProt P43115); assay: FLIPR Ca2+ signaling antagonist assay, EP3 receptor stable cell line; type: cell-based; details: HEK-293 EBNA stable cells with chimeric Gqi, standard agonist PGE2; NA = inactive (no antagonism or Kb≧10,000 nM)
# T8 construct: expressed in transfected cells
# T8 sequence (P43115 1-390): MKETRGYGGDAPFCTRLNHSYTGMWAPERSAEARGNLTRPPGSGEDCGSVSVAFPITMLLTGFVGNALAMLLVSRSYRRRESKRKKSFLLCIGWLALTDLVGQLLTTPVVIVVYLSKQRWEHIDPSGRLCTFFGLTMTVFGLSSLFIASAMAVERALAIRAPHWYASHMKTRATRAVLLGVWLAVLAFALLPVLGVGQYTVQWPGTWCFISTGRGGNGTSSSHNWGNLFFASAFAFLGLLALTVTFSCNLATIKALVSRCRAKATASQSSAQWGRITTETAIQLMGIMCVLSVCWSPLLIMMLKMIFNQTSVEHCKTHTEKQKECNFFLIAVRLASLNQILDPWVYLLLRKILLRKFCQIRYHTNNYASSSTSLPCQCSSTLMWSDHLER
# Description: as §1, §2, §3
# Ca^2+ signaling studies were performed using a FLIPR TETRA system (Molecular Devices, Sunnyvale, Calif., USA) in the 384-format. […] Cells were excited with LED (light emitting diode) excitation at 470-495 nm and emission was measured through an emission filter at 515-575 nm. Assay plates were read for 3.5 minutes using the FLIPR^TETRA. The peak increase in fluorescence intensity was recorded for each well. […]
# T1 sequence (P43088 whole entry): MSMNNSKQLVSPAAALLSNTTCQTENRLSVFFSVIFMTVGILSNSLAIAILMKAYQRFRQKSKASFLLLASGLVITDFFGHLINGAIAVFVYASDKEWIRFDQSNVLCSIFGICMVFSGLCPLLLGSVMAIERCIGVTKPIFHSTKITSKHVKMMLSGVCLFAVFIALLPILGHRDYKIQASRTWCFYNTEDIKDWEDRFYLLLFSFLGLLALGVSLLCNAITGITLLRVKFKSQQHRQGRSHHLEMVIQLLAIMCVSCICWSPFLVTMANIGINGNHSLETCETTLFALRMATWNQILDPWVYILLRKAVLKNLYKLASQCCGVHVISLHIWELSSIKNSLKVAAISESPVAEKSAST
# T6 sequence (P43119 whole entry): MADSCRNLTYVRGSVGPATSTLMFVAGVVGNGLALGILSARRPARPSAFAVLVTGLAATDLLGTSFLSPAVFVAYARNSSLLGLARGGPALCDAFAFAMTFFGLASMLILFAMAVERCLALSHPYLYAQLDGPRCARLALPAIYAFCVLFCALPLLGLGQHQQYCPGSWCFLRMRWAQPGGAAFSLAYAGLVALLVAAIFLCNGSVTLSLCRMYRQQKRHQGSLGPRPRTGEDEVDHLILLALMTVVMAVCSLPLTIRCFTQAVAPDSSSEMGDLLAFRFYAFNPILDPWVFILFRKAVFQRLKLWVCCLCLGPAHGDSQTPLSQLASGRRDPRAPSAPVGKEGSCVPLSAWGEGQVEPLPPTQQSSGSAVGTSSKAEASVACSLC
# T4 sequence (P43116 whole entry): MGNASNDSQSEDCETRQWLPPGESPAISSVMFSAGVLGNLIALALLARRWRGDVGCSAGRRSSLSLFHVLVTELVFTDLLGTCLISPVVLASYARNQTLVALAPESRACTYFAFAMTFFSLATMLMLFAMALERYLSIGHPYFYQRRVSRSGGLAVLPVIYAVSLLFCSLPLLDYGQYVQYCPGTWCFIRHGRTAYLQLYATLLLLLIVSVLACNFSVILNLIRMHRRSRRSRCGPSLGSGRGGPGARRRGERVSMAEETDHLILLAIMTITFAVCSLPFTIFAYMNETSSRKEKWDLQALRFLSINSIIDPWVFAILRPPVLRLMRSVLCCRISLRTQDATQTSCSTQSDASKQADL
# T5 sequence (P35408 whole entry): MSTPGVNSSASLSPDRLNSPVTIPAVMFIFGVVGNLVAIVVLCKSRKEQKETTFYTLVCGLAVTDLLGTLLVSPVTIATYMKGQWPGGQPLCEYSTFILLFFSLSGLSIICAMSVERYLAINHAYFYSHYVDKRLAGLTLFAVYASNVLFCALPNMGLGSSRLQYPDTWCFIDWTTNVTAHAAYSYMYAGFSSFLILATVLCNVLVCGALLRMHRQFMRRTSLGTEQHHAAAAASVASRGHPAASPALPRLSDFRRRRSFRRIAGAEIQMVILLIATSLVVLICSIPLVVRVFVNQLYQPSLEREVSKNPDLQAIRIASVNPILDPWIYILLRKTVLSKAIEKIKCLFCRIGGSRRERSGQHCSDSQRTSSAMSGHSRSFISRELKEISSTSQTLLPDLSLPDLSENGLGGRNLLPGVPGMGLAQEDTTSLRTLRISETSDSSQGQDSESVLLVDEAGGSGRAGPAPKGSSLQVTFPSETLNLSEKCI
SMILES,Kb [1] [nM],Kb [2] [nM],Kb [3] [nM],Kb [4] [nM],Kb [5] [nM],Kb [6] [nM],Kb [7] [nM],effect in model for uveitis (anterior chamber leukocyte infiltration score) [8],number of itch-scratch episodes [9],Kb [10] [nM]
"CCC(CC)COc1ccc(Br)cc1Cn1nc(CCC(=O)O)cc1C [Example 3, 3-{1-[5-Bromo-2-(2-ethyl-butoxy)-benzyl]-5-methyl-1H-pyrazol-3-yl}-propionic acid]",75,140,40,2300,85,1600,9,dose dependent response,significantly lower number of itch-scratch episodes,–
"Cc1cc(CCC(=O)NS(=O)(=O)C(F)(F)F)nn1Cc1cc(Cl)ccc1OCc1ccc(Cl)cc1 [Example 1, N-(3-{1-[5-Chloro-2-(4-Chloro-Benzyloxy)-Benzyl]-5-Methyl-1H-Pyrazol-3-yl}-Propionyl)-C,C,C-Trifluoromethanesulfonamide]",140,280,22,3100,150,620,12,–,–,1400
"CCC(CC)COc1ccc(Cl)cc1Cn1nc(CCC(=O)O)cc1C [Example 3a, 3-{1-[5-Chloro-2-(2-ethyl-butoxy)-benzyl]-5-methyl-1H-pyrazol-3-yl}-propionic acid]",180,220,71,2900,68,1100,5,dose dependent response,significantly lower number of itch-scratch episodes,7100
"Cc1cc(CCC(=O)O)nn1Cc1cc(Cl)ccc1OCC1CCCC1 [Example 4a, 3-[1-(5-Chloro-2-cyclopentylmethoxybenzyl)-5-methyl-1H-pyrazol-3-yl]-propionic acid]",110,280,80,4500,180,1200,3,–,–,–
"Cc1cc(CCC(=O)O)nn1Cc1cc(C(F)(F)F)ccc1OCC1CCCC1 [Example 5, 3-[1-(2-Cyclopentylmethoxy-5-trifluoromethylbenzyl)-5-methyl-1H-pyrazol-3-yl]-propionic acid]",63,220,24,3400,240,6800,7,–,–,–
"Cc1cc(CCC(=O)O)nn1Cc1cc(Br)ccc1OCC1CCCC1 [Example 4, 3-[1-(5-Bromo-2-cyclopentylmethoxybenzyl)-5-methyl-1H-pyrazol-3-yl]-propionic acid]",75,240,24,1200,120,1600,30,–,–,7800
